Data from patent US10793568B2, “Hormone receptor modulators for treating metabolic conditions and disorders” (ARDELYX, INC., priority 2016, dated 2020).
Where two headings read alike, the source gives them in different places. Blank lines part the entries; values can stand above or below the molecule they belong to.

Columns and labels:
[1] = molecular target: ligand binding domain of human FXR (Homo sapiens (Human), UniProt Q96RI1); test: FXR ligand binding assay (LanthaScreen TR-FRET, SRC2-2 peptide recruitment); conditions: for Emax: read-out: % Efficacy
ligand binding domain of human FXR, sequence (Q96RI1 262-486): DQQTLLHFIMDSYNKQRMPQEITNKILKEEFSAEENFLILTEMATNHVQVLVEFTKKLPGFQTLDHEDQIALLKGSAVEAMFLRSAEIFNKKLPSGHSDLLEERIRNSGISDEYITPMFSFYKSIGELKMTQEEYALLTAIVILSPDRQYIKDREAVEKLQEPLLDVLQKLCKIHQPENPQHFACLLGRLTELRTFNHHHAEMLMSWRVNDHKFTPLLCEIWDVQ

[2] = molecular target: human Farnesoid X receptor ligand-binding domain/Gal4 DNA binding domain chimera (Homo sapiens (Human), UniProt Q96RI1); test: Cell-based assay of FXR activation (FXR-UAS-bla HEK 293T beta-lactamase reporter); conditions: cellular FXR beta-lactamase reporter assay; for Emax: HEK-293T, read-out: % Efficacy; for EC50 / pEC50: FXR-UAS-bla HEK 293T cells, 16 h, pEC50 = -log EC50
human Farnesoid X receptor ligand-binding domain/Gal4 DNA binding domain chimera, sequence (Q96RI1 262-486, change not shown): as the sequence (Q96RI1 262-486) above
human Farnesoid X receptor ligand-binding domain/Gal4 DNA binding domain chimera, sequence (P04386 1-147 partner): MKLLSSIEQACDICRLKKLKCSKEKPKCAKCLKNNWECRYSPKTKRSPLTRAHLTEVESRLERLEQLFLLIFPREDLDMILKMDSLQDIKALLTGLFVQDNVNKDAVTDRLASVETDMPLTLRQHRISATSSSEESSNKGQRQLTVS
Outline: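 HEK 293T cells stably expressing a Gal4-fused human FXR LBD and a UAS-driven beta-lactamase reporter were incubated with serially diluted compounds for 16 h at 37 °C in phenol red-free DMEM with 2% charcoal-stripped FBS. CCF4 FRET read-out: excitation 409 nm, emission 447 nm. pEC50 comes from a 3-parameter logistic fit, and efficacy is given as % of GW4064.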

[3] = -log EC50, concentration required to produce 50% activation
[4] = extent of activation relative to GW4064

Compound: O=C(O)c1cc(C2CCCC2)c2nc(N3C[C@H]4C[C@@H]3C[C@@H]4OCc3c(-c4c(Cl)cccc4Cl)noc3C3CC3)sc2c1 [Compound I-285, 4-cyclopentyl-2-[(1R,4R,5S)-5-{[5-cyclopropyl-3-(2,6-dichlorophenyl)-1,2-oxazol-4-yl]methoxy}-2-azabicyclo[2.2.1]heptan-2-yl]-1,3-benzothiazole-6-carboxylic Acid]
- pEC50 [1, 3]: 8.9
- Emax [1, 4]: 116%
- Emax [2, 4]: 100%
- EC50 [2]: 0.00251 µM

Compound: CCCS(=O)(=O)NC(=O)c1cnc(N2C[C@@H]3C[C@H]2C[C@H]3OCc2c(-c3c(Cl)cccc3Cl)noc2C2CC2)c(F)c1 [Compound I-206, 6-((1S,4S,5R)-5-((5-cyclopropyl-3-(2,6-dichlorophenyl)isoxazol-4-yl)methoxy)-2-azabicyclo[2.2.1]heptan-2-yl)-5-fluoro-N-(propylsulfonyl)nicotinamide]
- pEC50 [1, 3]: 8.4
- Emax [1, 4]: 159%
- Emax [2, 4]: 104%
- EC50 [2]: 0.00158 µM

Compound: O=C(O)C1Cc2ccc(N3C(=O)[C@@H]4C[C@H]3C[C@H]4OCc3c(-c4c(Cl)cccc4Cl)noc3C3CC3)cc2C1 (stereo partly drawn) [Compound I-313, 5-[(1S,4R,5R)-5-{[5-cyclopropyl-3-(2,6-dichlorophenyl)-1,2-oxazol-4-yl]methoxy}-3-oxo-2-azabicyclo[2.2.1]heptan-2-yl]-2,3-dihydro-1H-indene-2-carboxylic Acid]
- pEC50 [1, 3]: 7
- Emax [1, 4]: 140%
- Emax [2, 4]: 112%
- EC50 [2]: 0.0251 µM

Compound: O=C(NS(=O)(=O)CCC(O)CO)c1ccc(N2C[C@@H]3C[C@H]2C[C@H]3OCc2c(-c3c(Cl)cccc3Cl)noc2C2CC2)cc1 (stereo partly drawn) [Compound I-219, 4-[(1S,4S,5R)-5-{[5-cyclopropyl-3-(2,6-dichlorophenyl)-1,2-oxazol-4-yl]methoxy}-2-azabicyclo[2.2.1]heptan-2-yl]-N-(3,4-dihydroxybutanesulfonyl)benzamide]
- pEC50 [1, 3]: 8.6
- Emax [1, 4]: 144%
- Emax [2, 4]: 104%
- EC50 [2]: 0.0398 µM

Compound: O=C(O)c1cc(OCC(F)(F)F)c2nc(N3C[C@@H]4C[C@H]3C[C@H]4OC(=O)c3c(-c4c(Cl)cccc4Cl)noc3C3CC3)sc2c1 [Compound I-7, 2-[(1S,4S,5R)-5-[5-cyclopropyl-3-(2,6-dichlorophenyl)-1,2-oxazole-4-carbonyloxy]-2-azabicyclo[2.2.1]heptan-2-yl]-4-(2,2,2-trifluoroethoxy)-1,3-benzothiazole-6-carboxylic acid]
- pEC50 [1, 3]: 7.4
- Emax [1, 4]: 162%
- Emax [2, 4]: 119%
- EC50 [2]: 0.00501 µM

Compound: O=C(NS(=O)(=O)C1CC1)c1ccc(N2C(=O)[C@@H]3C[C@H]2C[C@H]3OCc2c(-c3c(Cl)cccc3Cl)noc2C2CC2)cc1F [Compound I-331, 4-((1S,4R,5R)-5-((5-cyclopropyl-3-(2,6-chlorophenyl)isoxazol-4-yl)methoxy)-3-oxo-2-azabicyclo[2.2.1]heptan-2-yl)-N-(cyclopropylsulfonyl)-2-fluorobenzamiide]
- pEC50 [1, 3]: 8.7
- Emax [1, 4]: 180%
- Emax [2, 4]: 107%
- EC50 [2]: 0.000316 µM

Compound: Cc1cccc(Cl)c1-c1noc(C2(F)CC2)c1CO[C@@H]1C[C@@H]2C[C@H]1CN2c1ccc(C(=O)O)c(F)c1 [Compound I-124, 4-[(1S,4S,5R)-5-{[3-(2-chloro-6-methylphenyl)-5-(1-fluorocyclopropyl)-1,2-oxazol-4-yl]methoxy}-2-azabicyclo[2.2.1]heptan-2-yl]-2-fluorobenzoic Acid]
- pEC50 [1, 3]: 9.7
- Emax [1]: 143%
- Emax [2, 4]: 105%
- EC50 [2]: 0.00398 µM

Compound: O=C(NS(=O)(=O)C1CC1)c1ccc(N2C[C@@H]3C[C@H]2C[C@H]3OCc2c(-c3c(Cl)cccc3Cl)noc2C2(F)CC2)nc1 [Compound I-209, N-(cyclopropanesulfonyl)-6-[(1S,4S,5R)-5-{[3-(2,6-dichlorophenyl)-5-(1-fluorocyclopropyl)-1,2-oxazol-4-yl]methoxy}-2-azabicyclo[2.2.1]heptan-2-yl]pyridine-3-carboxamide]
- pEC50 [1, 3]: 7.8
- Emax [1, 4]: 160%
- Emax [2, 4]: 104%
- EC50 [2]: 0.0158 µM

- EC50 [1, 3]: 0.316 µM
- Emax [1, 4]: 85%
- Emax [2, 4]: 113%
- EC50 [2]: 0.126 µM
Compound: O=C(O)c1cc(OC(F)(F)F)c2nc(N3C[C@@H]4C[C@H]3C[C@H]4OCc3c(C4CCCCC4)noc3C3CC3)sc2c1 [Compound I-22, 2-[(1S,4S,5R)-5-[(3-cyclohexyl-5-cyclopropyl-1,2-oxazol-4-yl)methoxy]-2-azabicyclo[2.2.1]heptan-2-yl]-4-(trifluoromethoxy)-1,3-benzothiazole-6-carboxylic Acid]

Compound: O=C(O)c1cc(F)c2nc(N3C[C@@H]4C[C@H]3C[C@H]4OCc3c(-c4c(Cl)cccc4Cl)noc3C3CC3)sc2c1 [Compound I-12, 2-[(1S,4S,5R)-5-{[5-cyclopropyl-3-(2,6-dichlorophenyl)-1,2-oxazol-4-yl]methoxy}-2-azabicyclo[2.2.1]heptan-2-yl]-4-fluoro-1,3-benzothiazole-6-carboxylic Acid]
- pEC50 [1, 3]: 9
- Emax [1, 4]: 153%
- Emax [2, 4]: 122%
- EC50 [2]: 0.0001 µM

Compound: O=C(O)c1cc(F)c2nc(N3C[C@@H]4C[C@H]3C[C@H]4OCc3c(-c4ccccc4O)noc3C3CC3)sc2c1 [Compound I-291, 2-((1S,4S,5R)-5-((5-cyclopropyl-3-(2-hydroxyphenyl)isoxazol-4-yl)methoxy)-2-azabicyclo[2.2.1]heptan-2-yl)-4-fluorobenzo[d]thiazole-6-carboxylic acid]
- pEC50 [1, 3]: 6.1
- Emax [1, 4]: 120%
- EC50 [2]: < 0.0316 µM

- pEC50 [1, 3]: 8.7
- % Efficacy [1, 4]: 154%
- pEC50 [2]: 9.6
- % Efficacy [2, 4]: 108%
Compound: O=C(NS(=O)(=O)[C@H]1CC[C@@H](O)CC1)c1ccc(N2C[C@@H]3C[C@H]2C[C@H]3OCc2c(-c3c(Cl)cccc3Cl)noc2C2CC2)cc1 [Compound I-220, 4-[(1S,4S,5R)-5-{[5-cyclopropyl-3-(2,6-dichlorophenyl)-1,2-oxazol-4-yl]methoxy}-2-azabicyclo[2.2.1]heptan-2-yl]-N-{[(1s,4s)-4-hydroxycyclohexyl]sulfonyl}benzamide]

Compound: O=C(O)c1cc(C2CC2)c2nc(N3C(=O)[C@@H]4C[C@H]3C[C@H]4OCc3c(-c4c(Cl)cccc4Cl)noc3C3CC3)sc2c1 [Compound I-295, 4-cyclopropyl-2-((1S,4R,5R)-5-((5-cyclopropyl-3-(2,6-dichlorophenyl)isoxazol-4-yl)methoxy)-3-oxo-2-azabicyclo[2.2.1]heptan-2-yl)benzo[d]thiazole-6-carboxylic acid]
- pEC50 [1, 3]: 8.2
- Emax [1, 4]: 98%
- Emax [2, 4]: 105%
- EC50 [2]: 0.001 µM

- Emax [1, 4]: 148%
- Emax [2, 4]: 152%
- pEC50 [2]: 6.6
Compound: CC[N+](C)(CC)CCCCCCCCCCS(=O)(=O)NC(=O)c1ccc(N2C[C@@H]3C[C@H]2C[C@H]3OCc2c(-c3c(Cl)cccc3Cl)noc2C2CC2)c(F)c1 [Compound I-226]

Compound: COC(=O)c1cc(F)c2nc(N3C[C@@H]4C[C@H]3C[C@@H]4OCc3c(-c4c(Cl)cccc4Cl)noc3C3CC3)sc2c1 [Compound I-36, Methyl 2-[(1S,4S,5S)-5-{[5-cyclopropyl-3-(2,6-dichlorophenyl)-1,2-oxazol-4-yl]methoxy}-2-azabicyclo[2.2.1]heptan-2-yl]-4-fluoro-1,3-benzothiazole-6-carboxylate]
- pEC50 [1, 3]: 5.4
- Emax [1, 4]: 86%
- Emax [2, 4]: 50%
- EC50 [2]: 6.31 µM

Compound: O=C(O)c1cc(C2CCOCC2)c2nc(N3C[C@@H]4C[C@H]3C[C@H]4OCc3c(C4CCC5(CC4)CC5)noc3C3CC3)sc2c1 [Compound I-279]
- pEC50 [1, 3]: 7.2
- Emax [1, 4]: 112%
- Emax [2, 4]: 104%
- EC50 [2]: 0.0398 µM

Compound: Cc1cc(C(=O)O)ccc1N1C(=O)[C@@H]2C[C@H]1C[C@H]2OCc1c(-c2c(Cl)cccc2Cl)noc1C1CC1 [Compound I-317, 4-[(1S,4R,5R)-5-{[5-cyclopropyl-3-(2,6-dichlorophenyl)-1,2-oxazol-4-yl]methoxy}-3-oxo-2-azabicyclo[2.2.1]heptan-2-yl]-3-methylbenzoic Acid]
- pEC50 [1, 3]: 6.7
- Emax [1, 4]: 131%
- Emax [2, 4]: 126%
- EC50 [2]: 0.1 µM

Compound: CCCS(=O)(=O)NC(=O)c1ccc(N2C[C@@H]3C[C@H]2C[C@H]3OCc2c(-c3c(Cl)cccc3Cl)noc2C2(F)CC2)c(F)c1 [Compound I-198, 4-((1S,4S,5R)-5-((3-(2,6-dichlorophenyl)-5-(1-fluorocyclopropyl)isoxazol-4-yl)methoxy)-2-azabicyclo[2.2.1]heptan-2-yl)-3-fluoro-N-(propylsulfonyl)benzamide]
- pEC50 [1, 3]: 8.5
- Emax [1, 4]: 178%
- Emax [2, 4]: 112%
- EC50 [2]: 0.000501 µM

Compound: O=C(O)c1cc(OC(F)(F)F)c2nc(N3C[C@@H]4C[C@H]3C[C@H]4OCc3c(C4CCOCC4)noc3C3CC3)sc2c1 [Compound I-23, 2-[(1S,4S,5R)-5-{[5-cyclopropyl-3-(oxan-4-yl)-1,2-oxazol-4-yl]methoxy}-2-azabicyclo[2.2.1]heptan-2-yl]-4-(trifluoromethoxy)-1,3-benzothiazole-6-carboxylic Acid]
- pEC50 [1, 3]: 5.5
- Emax [1, 4]: 85%
- Emax [2, 4]: 100%
- EC50 [2]: 0.631 µM

Compound: CCCS(=O)(=O)NC(=O)c1ccc(N2C[C@@H]3C[C@H]2C[C@H]3OCc2c(-c3c(Cl)cccc3Cl)noc2C2CC2)cc1F [Compound I-194, 4-((1S,4S,5R)-5-((5-cyclopropyl-3-(2,6-dichlorophenyl)isoxazol-4-yl)methoxy)-2-azabicyclo[2.2.1]heptan-2-yl)-2-fluoro-N-(propylsulfonyl)benzamide]
- pEC50 [1, 3]: 9
- Emax [1, 4]: 141%
- Emax [2, 4]: 104%
- EC50 [2]: 0.0002 µM
